Toxic doses and inconclusive results are not listed. Rule as the data show it: active = T/C of 150% or more; inactive = T/C below 125%.
Tested on: L1210 leukemia ip in BDF1 mice, survival T/C
Experiment: NCI In Vivo Anticancer Drug Screen. Data for tumor model L1210 Leukemia (intraperitoneal) in B6D2F1 (BDF1) mice
Settings: endpoint: mean survival time, higher = longer survival
Summary of the method: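 Each compound was tested against a transplantable tumor grown in mice. The endpoint was survival, with treated animals benchmarked against vehicle controls as a simple ratio.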

[1] = dose: 25.0 mg/kg/injection, schedule: Q04DX003 (ip), vehicle: saline
[2] = dose: 50.0 mg/kg/injection, schedule: Q04DX003 (ip), vehicle: saline
[3] = dose: 100.0 mg/kg/injection, schedule: Q04DX003 (ip), vehicle: saline
[4] = dose: 100.0 mg/kg/injection, schedule: Q04DX002 (ip), vehicle: saline
[5] = dose: 200.0 mg/kg/injection, schedule: Q04DX002 (ip), vehicle: saline
[6] = dose: 100.0 mg/kg/injection, schedule: Q01DX009 (ip), vehicle: saline with Tween-80
[7] = dose: 100.0 mg/kg/injection, schedule: Q01DX001 (ip), vehicle: carboxymethylcellulose (CMC)
[8] = dose: 200.0 mg/kg/injection, schedule: Q01DX001 (ip), vehicle: carboxymethylcellulose (CMC)
[9] = dose: 400.0 mg/kg/injection, schedule: Q01DX001 (ip), vehicle: carboxymethylcellulose (CMC)
[10] = dose: 100.0 mg/kg/injection, schedule: Q04DX003 (ip), vehicle: saline with Tween-80
[11] = dose: 200.0 mg/kg/injection, schedule: Q04DX003 (ip), vehicle: saline with Tween-80
[12] = dose: 400.0 mg/kg/injection, schedule: Q04DX003 (ip), vehicle: saline with Tween-80
[13] = dose: 200.0 mg/kg/injection, schedule: Q01DX009 (ip), vehicle: saline with Tween-80
[14] = dose: 400.0 mg/kg/injection, schedule: Q01DX009 (ip), vehicle: saline with Tween-80
[15] = dose: 100.0 mg/kg/injection, schedule: Q01DX001 (ip), vehicle: saline
[16] = dose: 100.0 mg/kg/injection, schedule: Q04DX003 (ip), vehicle: Klucel (hydroxypropylcellulose) (HPC)
[17] = dose: 200.0 mg/kg/injection, schedule: Q04DX003 (ip), vehicle: Klucel (hydroxypropylcellulose) (HPC)
[18] = dose: 400.0 mg/kg/injection, schedule: Q04DX003 (ip), vehicle: Klucel (hydroxypropylcellulose) (HPC)
[19] = dose: 100.0 mg/kg/injection, schedule: Q01DX001 (ip), vehicle: Klucel (hydroxypropylcellulose) (HPC)
[20] = dose: 200.0 mg/kg/injection, schedule: Q01DX001 (ip), vehicle: Klucel (hydroxypropylcellulose) (HPC)
[21] = dose: 400.0 mg/kg/injection, schedule: Q01DX001 (ip), vehicle: Klucel (hydroxypropylcellulose) (HPC)
[22] = dose: 50.0 mg/kg/injection, schedule: Q04DX002 (ip), vehicle: saline
[23] = dose: 100.0 mg/kg/injection, schedule: Q04DX002 (ip), vehicle: Klucel (hydroxypropylcellulose) (HPC)
[24] = dose: 200.0 mg/kg/injection, schedule: Q04DX002 (ip), vehicle: Klucel (hydroxypropylcellulose) (HPC)
[25] = dose: 400.0 mg/kg/injection, schedule: Q04DX002 (ip), vehicle: Klucel (hydroxypropylcellulose) (HPC)

Measured: T/C

COc1ccc(CN(CCOC(=O)c2ccc(OC)cc2)CCN(CCOC(=O)c2ccc(OC)cc2)Cc2ccc(OC)cc2)cc1
inactive: dose: 12.5 mg/kg/injection, schedule: Q01DX009 (ip), vehicle: other 91 % of control | dose: 25.0 mg/kg/injection, schedule: Q01DX009 (ip), vehicle: other 86 % of control | dose: 25.0 mg/kg/injection, schedule: Q01DX009 (ip), vehicle: water 88 % of control | dose: 50.0 mg/kg/injection, schedule: Q01DX009 (ip), vehicle: other 91 % of control | dose: 50.0 mg/kg/injection, schedule: Q01DX009 (ip), vehicle: water 93 % of control | dose: 100.0 mg/kg/injection, schedule: Q01DX009 (ip), vehicle: other 88 % of control | dose: 100.0 mg/kg/injection, schedule: Q01DX009 (ip), vehicle: water 87 % of control | dose: 200.0 mg/kg/injection, schedule: Q01DX009 (ip), vehicle: water 88 % of control | dose: 400.0 mg/kg/injection, schedule: Q01DX009 (ip), vehicle: water 92 % of control

NC(=O)NC(CCl)NC(N)=O
inactive: dose: 25.0 mg/kg/injection, schedule: Q01DX009 (ip), vehicle: acetone 95 % of control | [1] 96 % of control | dose: 50.0 mg/kg/injection, schedule: Q01DX009 (ip), vehicle: acetone 94 % of control | [2] 94 % of control | dose: 100.0 mg/kg/injection, schedule: Q01DX001 (ip), vehicle: acetone 94 % of control | [3] 89 % of control

CCOc1ccccc1NC(=O)C1CCCCC1C(=O)O (stereo not drawn)
inactive: [4] 96 % of control | [5] 112 % of control

COc1ccc2nc3cc(Cl)ccc3c(NCCNCCNCCNc3c4ccc(Cl)cc4nc4ccc(OC)cc34)c2c1
inactive: dose: 6.25 mg/kg/injection, schedule: Q01DX009 (ip), vehicle: saline with Tween-80 100 % of control | dose: 12.5 mg/kg/injection, schedule: Q01DX009 (ip), vehicle: saline with Tween-80 91 % of control | dose: 25.0 mg/kg/injection, schedule: Q01DX009 (ip), vehicle: saline with Tween-80 101 % of control | [6] 107 % of control

CCOC(=O)CCCN(c1ccccc1C(=O)OC)S(=O)(=O)c1ccc(C)cc1
inactive: [7] 97 % of control | [8] 94 % of control | [9] 103 % of control

Nc1cc2c(cc1Cl)-c1ccc([N+](=O)[O-])cc1/C2=N\O
inactive: [7] 104 % of control | [8] 116 % of control | [9] 104 % of control

COc1ccc(C(C(N)=O)N2CCCC2)cc1 (stereo not drawn)
inactive: [10] 102 % of control | [11] 96 % of control | [12] 96 % of control

Cc1c(Cl)cccc1NC(=O)Oc1ccc(Cl)cc1
inactive: [6] 92 % of control | [10] 93 % of control | [13] 87 % of control | [11] 97 % of control | [14] 87 % of control | [12] 102 % of control

COC(=O)c1ccc(N(C)CCC(=O)CBr)cc1
inactive: [15] 95 % of control

O=C1NCCCCN1
inactive: [10] 100 % of control | [11] 100 % of control | [12] 101 % of control

Cc1ccc(N(C=O)N=O)cc1
inactive: [15] 101 % of control | dose: 200.0 mg/kg/injection, schedule: Q01DX001 (ip), vehicle: saline 98 % of control

Clc1ccc(-c2nnc(-c3cccc4ccccc34)o2)cc1Cl
inactive: [6] 89 % of control | [10] 86 % of control | [11] 92 % of control | [14] 86 % of control | [12] 86 % of control

O=C(CCc1cccnc1)Nc1ccccc1
inactive: [16] 102 % of control | [17] 100 % of control | [18] 94 % of control

CC1(c2cccc3ccccc23)OCC2(CCC2)CO1
inactive: [19] 102 % of control | [20] 98 % of control | [21] 100 % of control

O=S(=O)(NO)c1cccc(S(=O)(=O)NO)c1
inactive: dose: 100.0 mg/kg/injection, schedule: Q01DX009 (ip), vehicle: saline 97 % of control | [16] 89 % of control | dose: 200.0 mg/kg/injection, schedule: Q01DX009 (ip), vehicle: saline 87 % of control | [17] 95 % of control | [18] 92 % of control

CCOC(=O)C(CCc1c[nH]c(=O)[nH]c1=O)(NC(C)=O)C(=O)OCC
inactive: [22] 102 % of control | [4] 122 % of control | [5] 102 % of control | dose: 400.0 mg/kg/injection, schedule: Q04DX002 (ip), vehicle: saline 104 % of control

[O-][n+]1onc(-c2ccccc2)c1-c1ccccc1
inactive: [16] 105 % of control | [17] 108 % of control | [18] 108 % of control

O=C1/C(=C\c2ccc([N+](=O)[O-])cc2)N2CCC1CC2
inactive: [23] 102 % of control | [24] 94 % of control | [25] 105 % of control

CCCCCCCCC[n+]1cccc(C#N)c1
inactive: dose: 18.75 mg/kg/injection, schedule: Q01DX009 (ip), vehicle: saline 90 % of control | dose: 37.5 mg/kg/injection, schedule: Q01DX009 (ip), vehicle: saline 88 % of control | dose: 37.5 mg/kg/injection, schedule: Q04DX003 (ip), vehicle: acetone 100 % of control | dose: 75.0 mg/kg/injection, schedule: Q01DX001 (ip), vehicle: saline 100 % of control | dose: 75.0 mg/kg/injection, schedule: Q01DX009 (ip), vehicle: saline 90 % of control | dose: 75.0 mg/kg/injection, schedule: Q04DX003 (ip), vehicle: acetone 97 % of control | dose: 150.0 mg/kg/injection, schedule: Q01DX001 (ip), vehicle: saline 102 % of control | dose: 150.0 mg/kg/injection, schedule: Q04DX003 (ip), vehicle: acetone 105 % of control

CC(=O)NC1C(OS(=O)(=O)c2ccc(C)cc2)C(NC(C)=O)C(OC(C)=O)C(OC(C)=O)C1OC(C)=O (stereo not drawn)
inactive: [6] 102 % of control | [13] 109 % of control | [14] 100 % of control

NC(=O)Nc1ccccc1F
inactive: [23] 106 % of control | [24] 100 % of control | [25] 100 % of control

N/N=C(\N)NC(=O)c1ccccc1
inactive: dose: 15.0 mg/kg/injection, schedule: Q01DX Z (ip), vehicle: saline 103 % of control | dose: 30.0 mg/kg/injection, schedule: Q01DX Z (ip), vehicle: saline 97 % of control | dose: 60.0 mg/kg/injection, schedule: Q01DX Z (ip), vehicle: saline 94 % of control | dose: 120.0 mg/kg/injection, schedule: Q01DX Z (ip), vehicle: saline 105 % of control | dose: 240.0 mg/kg/injection, schedule: Q01DX Z (oral), vehicle: saline 108 % of control | dose: 480.0 mg/kg/injection, schedule: Q01DX Z (oral), vehicle: saline 95 % of control | dose: 960.0 mg/kg/injection, schedule: Q01DX Z (oral), vehicle: saline 103 % of control | dose: 1920.0 mg/kg/injection, schedule: Q01DX Z (oral), vehicle: saline 101 % of control

CCCCCCCC/C=C\CCCCCCCC(=O)OCCCCC
inactive: [19] 93 % of control | dose: 100.0 mg/kg/injection, schedule: Q01DX009 (ip), vehicle: saline sonified 102 % of control | [6] 108 % of control | [10] 93 % of control | [20] 92 % of control | dose: 200.0 mg/kg/injection, schedule: Q01DX009 (ip), vehicle: saline sonified 100 % of control | [13] 98 % of control | [11] 91 % of control | [21] 103 % of control | dose: 400.0 mg/kg/injection, schedule: Q01DX009 (ip), vehicle: saline sonified 93 % of control | [14] 95 % of control | [12] 95 % of control

N=C(N)SCc1ccc(Cl)cc1
inactive: dose: 25.0 mg/kg/injection, schedule: Q04DX002 (ip), vehicle: saline 98 % of control | [22] 94 % of control | [4] 101 % of control

C=CCc1cc(CN(C)CCO)c(O)c(OC)c1
inactive: [1] 95 % of control | [2] 95 % of control | [3] 91 % of control
